Results: ChEMBL document CHEMBL5390264, “Exploring Fatty Acid Mimetics as NR4A Ligands” (J Med Chem, 2023)
Calls of active or inactive are those of the source. The calls are words filed in the database; no cut-off is given here.

Columns and labels:
Assay type in all cases: cell-based
[1] = molecular target: T1, Thyroid hormone receptor alpha (Homo sapiens) (UniProt P10827); test: Agonist activity at THRalpha LBD (unknown origin) transiently transfected in HEK293T cells at 1 uM incubated for 16 hrs by Gal4-hybrid reporter gene based Dual-glo luciferase assay
T1 sequence (whole entry): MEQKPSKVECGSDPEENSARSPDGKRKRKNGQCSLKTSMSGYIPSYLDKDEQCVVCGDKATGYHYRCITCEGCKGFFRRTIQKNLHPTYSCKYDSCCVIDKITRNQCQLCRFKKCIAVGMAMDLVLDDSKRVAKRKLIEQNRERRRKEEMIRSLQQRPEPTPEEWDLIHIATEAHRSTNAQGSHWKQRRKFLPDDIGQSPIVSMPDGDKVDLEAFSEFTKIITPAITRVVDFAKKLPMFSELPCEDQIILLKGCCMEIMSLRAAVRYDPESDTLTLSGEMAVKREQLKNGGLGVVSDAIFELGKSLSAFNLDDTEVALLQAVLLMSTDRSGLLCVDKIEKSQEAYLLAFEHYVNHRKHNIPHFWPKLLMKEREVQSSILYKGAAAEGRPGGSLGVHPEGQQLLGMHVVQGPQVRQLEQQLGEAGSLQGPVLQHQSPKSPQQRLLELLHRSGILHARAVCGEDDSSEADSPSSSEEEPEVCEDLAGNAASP

[2] = molecular target: T2, Peroxisome proliferator-activated receptor delta (Homo sapiens) (UniProt Q03181); test: Agonist activity at PPARdelta LBD (unknown origin) transiently transfected in HEK293T cells at 1 uM incubated for 16 hrs by Gal4-hybrid reporter gene based Dual-glo luciferase assay
T2 sequence (whole entry): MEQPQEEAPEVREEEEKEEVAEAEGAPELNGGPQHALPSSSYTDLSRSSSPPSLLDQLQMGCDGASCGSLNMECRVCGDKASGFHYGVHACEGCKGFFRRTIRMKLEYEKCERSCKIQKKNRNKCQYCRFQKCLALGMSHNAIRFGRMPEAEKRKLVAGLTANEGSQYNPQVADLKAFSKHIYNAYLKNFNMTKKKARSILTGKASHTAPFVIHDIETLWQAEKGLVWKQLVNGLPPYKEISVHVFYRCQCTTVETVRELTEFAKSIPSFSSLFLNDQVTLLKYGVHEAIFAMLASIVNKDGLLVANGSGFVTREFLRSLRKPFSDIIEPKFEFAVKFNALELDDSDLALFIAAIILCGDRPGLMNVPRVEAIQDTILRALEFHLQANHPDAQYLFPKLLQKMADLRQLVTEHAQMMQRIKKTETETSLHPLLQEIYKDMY

[3] = Selectivity ratio for agonist activity at THRalpha LBD (unknown origin) transiently transfected in HEK293T cells to agonist activity at human Nur77 LBD transiently transfected in HEK293T cells
[4] = Selectivity ratio for agonist activity at RARalpha LBD (unknown origin) transiently transfected in HEK293T cells to agonist activity at human Nurr1 LBD transiently transfected in HEK293T cells
[5] = Selectivity ratio for agonist activity at PPARdelta LBD (unknown origin) transiently transfected in HEK293T cells to agonist activity at human Nurr1 LBD transiently transfected in HEK293T cells
[6] = Selectivity ratio for agonist activity at RXRalpha LBD (unknown origin) transiently transfected in HEK293T cells to agonist activity at human Nurr1 LBD transiently transfected in HEK293T cells
[7] = Selectivity ratio for agonist activity at RARalpha LBD (unknown origin) transiently transfected in HEK293T cells to agonist activity at human NOR-1 LBD transiently transfected in HEK293T cells
[8] = Selectivity ratio for agonist activity at PPARgamma LBD (unknown origin) transiently transfected in HEK293T cells to agonist activity at human NOR-1 LBD transiently transfected in HEK293T cells
[9] = Selectivity ratio for agonist activity at RXRalpha LBD (unknown origin) transiently transfected in HEK293T cells to agonist activity at human NOR-1 LBD transiently transfected in HEK293T cells

Activity [1]: inactive
Activity [2]: inactive
Compound: CC(C)(C)c1ccc(COc2cccc(C(=O)O)c2)cc1
Selectivity ratio [3]: > 30
Selectivity ratio [4]: > 30
Selectivity ratio [5]: > 30
Selectivity ratio [6]: > 30
Selectivity ratio [7]: > 30
Selectivity ratio [8]: > 30
Selectivity ratio [9]: > 30
